{"source": "paper PMC5352051", "about": "“Identification of a novel Polo-like kinase 1 inhibitor that specifically blocks the functions of Polo-Box domain” (Oncotarget, 2016)", "key": {"[1]": {"system": "A549 lung-carcinoma cells", "test": "A549 xenograft in nude mice, tumor volume", "type": "in vivo", "conditions": "intratumoral injection 50 and 100 mg/kg, Wednesdays and Fridays, 5 weeks, vs DMSO", "procedure": "Female athymic nude mice were injected with 2.0 × 10^7 A549 lung-carcinoma cells subcutaneously. After 14~20 days, when the tumor volumes reached 100~150 mm^3, animals were divided into treatment (T521; 50, 100 mg/kg) and control (DMSO) groups with ten mice in each group. T521 (0.2 g/mL) dissolved in DMSO was administered alone and mice were treated with T521 by intratumoral injection at the different injection points according to indicated dose on Wednesdays and Fridays for 5 weeks. Tumor volumes were determined with a caliper on Monday and Thursday during drug administration cycle. Tumor volume (mm^3) was calculated using the following equation: V=L×S^2×π/6, where L is the length and S is width of the tumor. The body weight of these mice was determined as an indicator of tolerability on the same days. Student's t-tests were performed for statistical evaluation among treatment and control groups. All mice were properly treated in accordance with the guidelines of the local animal committee."}, "Plk1": {"target": "T1, Plk1 (Homo sapiens, UniProt P53350)", "T1 construct": "purchased Sino Biological Inc", "T1 sequence (P53350 whole entry)": "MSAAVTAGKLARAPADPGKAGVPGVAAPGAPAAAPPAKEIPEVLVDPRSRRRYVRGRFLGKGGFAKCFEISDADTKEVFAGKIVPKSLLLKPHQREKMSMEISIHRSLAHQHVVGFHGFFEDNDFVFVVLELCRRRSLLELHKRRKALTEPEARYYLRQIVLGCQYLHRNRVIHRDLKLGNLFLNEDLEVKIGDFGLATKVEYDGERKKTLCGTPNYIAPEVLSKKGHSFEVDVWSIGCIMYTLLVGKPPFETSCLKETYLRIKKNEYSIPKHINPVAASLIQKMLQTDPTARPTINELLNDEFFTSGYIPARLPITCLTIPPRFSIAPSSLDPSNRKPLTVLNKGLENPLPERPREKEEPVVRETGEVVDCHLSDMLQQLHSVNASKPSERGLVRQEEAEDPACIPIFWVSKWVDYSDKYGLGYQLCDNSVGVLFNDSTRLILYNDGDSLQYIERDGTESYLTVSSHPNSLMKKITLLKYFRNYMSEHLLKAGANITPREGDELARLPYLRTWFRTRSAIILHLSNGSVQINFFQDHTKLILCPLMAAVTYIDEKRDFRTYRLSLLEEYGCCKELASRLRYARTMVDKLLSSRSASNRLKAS", "test": "HPLC-Q-TOF mass spectrometry of intact protein after incubation", "type": "binding", "conditions": "Plk1 10 μM, T521 500 μM, 50 mM Tris-HCl pH8.0, RT, 30 min", "procedure": "(§1) The covalent binding mode was speculated from the interactions between Poloxin, TQ and Plk1 PBD [23]. […] To test this possibility, we incubated purified Plk1 (10 μM) with T521 (500 μM) in 50 mM Tris-HCl (pH8.0) at room temperature for 30 min. […] In contrast, no addition of T521 to Plk2 or Plk3 was detected after their incubation with T521 (Supplementary Figure S1C, S1D, S1E and S1F).\n(§2) Supplementary Figure S1: Analysis of binding mode between T521 and Plk1-3 using HPLC-Q-TOF MS. Plk1-3 (10 μM) proteins were incubated with or without T521 (500 μM) in 50 mM Tris-HCl (pH8.0) at RT for 30 min. The desalted samples (5 μg) were eluted with an HPLC gradient program into a Q-TOF mass spectrometer (Agilent, USA). Mass spectra were obtained after deconvolution.\n(§3) A, C, E. The analysis of Plk1-3 proteins after incubation in the absence of T521. B, D, F. The analysis of Plk1-3 proteins after incubation […]\n(§4) (also on this page, place not known: www.impactjournals.com/oncotarget/ Oncotarget, Materials 2016 Supplementary) […]"}, "Plk2": {"target": "T2, Plk2 (Homo sapiens, UniProt Q9NYY3)", "T2 construct": "purchased Sino Biological Inc", "T2 sequence (Q9NYY3 whole entry)": "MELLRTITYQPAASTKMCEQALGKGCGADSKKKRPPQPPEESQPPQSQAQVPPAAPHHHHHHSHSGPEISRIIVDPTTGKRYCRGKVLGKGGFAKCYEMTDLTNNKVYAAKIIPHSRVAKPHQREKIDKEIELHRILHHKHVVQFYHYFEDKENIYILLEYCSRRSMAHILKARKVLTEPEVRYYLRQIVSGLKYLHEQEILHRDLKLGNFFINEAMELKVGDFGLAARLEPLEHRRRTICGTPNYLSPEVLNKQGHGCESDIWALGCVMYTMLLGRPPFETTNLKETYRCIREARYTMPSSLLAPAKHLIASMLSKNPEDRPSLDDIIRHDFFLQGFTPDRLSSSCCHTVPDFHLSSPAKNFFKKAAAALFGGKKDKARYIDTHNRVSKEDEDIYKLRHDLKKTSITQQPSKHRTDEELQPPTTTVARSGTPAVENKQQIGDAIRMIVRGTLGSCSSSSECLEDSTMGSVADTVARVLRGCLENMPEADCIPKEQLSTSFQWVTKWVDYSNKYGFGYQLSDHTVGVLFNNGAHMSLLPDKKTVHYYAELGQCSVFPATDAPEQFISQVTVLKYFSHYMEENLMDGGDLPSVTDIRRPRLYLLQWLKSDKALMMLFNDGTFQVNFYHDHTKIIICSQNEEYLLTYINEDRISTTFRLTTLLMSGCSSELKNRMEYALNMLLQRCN", "test": "HPLC-Q-TOF mass spectrometry of intact protein after incubation", "type": "binding", "conditions": "Plk2 10 μM, T521 500 μM, RT, 30 min", "procedure": "as §1, §2, §3, §4"}, "Plk3": {"target": "T3, Plk3 (Homo sapiens, UniProt Q9H4B4)", "T3 construct": "purchased Sino Biological Inc", "T3 sequence (Q9H4B4 whole entry)": "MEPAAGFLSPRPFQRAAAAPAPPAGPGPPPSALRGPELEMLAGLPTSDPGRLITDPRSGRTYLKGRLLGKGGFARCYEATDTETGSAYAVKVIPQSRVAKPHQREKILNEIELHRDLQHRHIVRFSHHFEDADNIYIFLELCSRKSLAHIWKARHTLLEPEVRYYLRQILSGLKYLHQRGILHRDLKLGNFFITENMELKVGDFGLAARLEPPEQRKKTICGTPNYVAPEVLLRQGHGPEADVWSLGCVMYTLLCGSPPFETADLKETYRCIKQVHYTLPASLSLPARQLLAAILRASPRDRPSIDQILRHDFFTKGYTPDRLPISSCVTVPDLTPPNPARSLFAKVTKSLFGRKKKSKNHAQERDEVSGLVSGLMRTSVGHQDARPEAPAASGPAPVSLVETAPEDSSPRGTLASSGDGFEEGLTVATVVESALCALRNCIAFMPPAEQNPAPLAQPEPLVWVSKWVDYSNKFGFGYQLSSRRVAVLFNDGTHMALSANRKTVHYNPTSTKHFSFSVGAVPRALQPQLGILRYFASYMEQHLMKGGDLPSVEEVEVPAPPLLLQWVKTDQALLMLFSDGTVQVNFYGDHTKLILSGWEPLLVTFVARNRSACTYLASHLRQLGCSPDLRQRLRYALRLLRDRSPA", "test": "HPLC-Q-TOF mass spectrometry of intact protein after incubation", "type": "binding", "conditions": "Plk3 10 μM, T521 500 μM, RT, 30 min", "procedure": "as §1, §2, §3, §4"}}, "data": [{"compound": "CCS(=O)(=O)c1oc(-c2ccc(F)cc2)nc1S(=O)(=O)c1ccccc1", "note": "[T521, 5-(ethylsulfonyl)-2-(4-fluorophenyl)-4-(phenylsulfonyl) oxazole]", "values": [{"measurement": "tumor volume", "setting": "[1]", "value": "obvious reduction of tumor volume"}, {"measurement": "increase of intact mass of protein (covalent addition)", "setting": "Plk1", "value": 907.05, "unit": "Da"}, {"measurement": "covalent addition to protein", "setting": "Plk2", "value": "no addition"}, {"measurement": "covalent addition to protein", "setting": "Plk3", "value": "no addition"}]}]}
